These results are taken from ChEMBL document CHEMBL1134829, “7-Alkyl- and 7-cycloalkyl-5-aryl-pyrrolo[2,3-d]pyrimidines--potent inhibitors of the tyrosine kinase c-Src” (Bioorg Med Chem Lett, 2001).

For assay [1], the target named is Epidermal growth factor receptor (Homo sapiens, UniProt P00533). Put plainly: Inhibition of Epidermal growth factor receptor (EGF-R) tyrosine kinase activity.
Assay [2] concerns the target T1, Proto-oncogene tyrosine-protein kinase Src (Gallus gallus, UniProt P00523). Kind of assay: Inhibition of p60 c-Src tyrosine kinase activity.
Assay [3] concerns the target T1, Proto-oncogene tyrosine-protein kinase Src. Put plainly: Inhibition of p60 c-Src tyrosine kinase mediated phosphorylation of Fak in IC8.1 fibroblasts. The format is functional.
The target of assay [4] is Tyrosine-protein kinase ABL (Homo sapiens, UniProt P00519+P42684).
Description: Inhibition of v-Abl tyrosine kinase activity
Assay [5] addresses T1, Proto-oncogene tyrosine-protein kinase Src. Put plainly: Inhibition of p60 c-Src tyrosine kinase at 830 ng/mL.

Molecules are shown by their SMILES.

Sequence of Epidermal growth factor receptor (P00533 whole entry): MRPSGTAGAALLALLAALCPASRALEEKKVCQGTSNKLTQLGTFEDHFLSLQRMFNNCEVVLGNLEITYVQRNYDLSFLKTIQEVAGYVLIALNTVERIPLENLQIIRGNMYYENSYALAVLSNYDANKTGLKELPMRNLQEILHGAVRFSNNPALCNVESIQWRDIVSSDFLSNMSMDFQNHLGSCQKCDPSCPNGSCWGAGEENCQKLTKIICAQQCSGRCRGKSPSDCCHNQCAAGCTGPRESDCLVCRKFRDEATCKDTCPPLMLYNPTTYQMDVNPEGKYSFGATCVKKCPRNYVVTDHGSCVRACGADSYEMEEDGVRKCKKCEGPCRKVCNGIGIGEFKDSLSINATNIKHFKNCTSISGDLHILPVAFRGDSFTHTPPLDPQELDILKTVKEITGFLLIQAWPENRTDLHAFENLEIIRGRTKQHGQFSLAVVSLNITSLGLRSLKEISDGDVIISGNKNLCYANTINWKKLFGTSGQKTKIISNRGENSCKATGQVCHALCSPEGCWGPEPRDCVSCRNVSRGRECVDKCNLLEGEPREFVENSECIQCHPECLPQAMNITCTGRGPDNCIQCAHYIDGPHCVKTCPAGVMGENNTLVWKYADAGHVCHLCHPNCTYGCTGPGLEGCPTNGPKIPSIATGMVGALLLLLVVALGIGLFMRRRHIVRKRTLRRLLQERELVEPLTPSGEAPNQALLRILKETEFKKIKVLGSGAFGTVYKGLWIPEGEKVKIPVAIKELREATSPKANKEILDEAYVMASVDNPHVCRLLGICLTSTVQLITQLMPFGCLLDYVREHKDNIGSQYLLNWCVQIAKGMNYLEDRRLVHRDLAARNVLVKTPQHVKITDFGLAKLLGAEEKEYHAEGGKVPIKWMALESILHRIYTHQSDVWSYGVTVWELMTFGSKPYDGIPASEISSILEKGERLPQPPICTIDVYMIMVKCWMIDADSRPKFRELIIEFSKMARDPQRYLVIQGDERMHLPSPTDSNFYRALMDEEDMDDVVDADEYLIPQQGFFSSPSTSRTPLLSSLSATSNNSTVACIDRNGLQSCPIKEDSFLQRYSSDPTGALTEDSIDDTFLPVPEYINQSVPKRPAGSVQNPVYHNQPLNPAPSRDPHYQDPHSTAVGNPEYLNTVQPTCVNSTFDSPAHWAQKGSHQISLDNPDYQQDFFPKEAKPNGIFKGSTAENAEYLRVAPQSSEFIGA

In the case of `Nc1ncnc2c1c(-c1ccc(O)cc1)cn2C1CCC1`, the IC50 (commonly the midpoint of a concentration-inhibition curve) stood at 600 nM in assay [1], 10 nM in assay [2], 1500 nM in assay [3] and 85 nM in assay [4].
Consider `Nc1ncnc2c1c(-c1ccccc1)cn2C1CCC1`, for which the IC50 in assay [1] is 730 nM; in assay [2] it was 110 nM; in assay [3], 1000 nM; in assay [4], 90 nM.
As for `Nc1ncnc2c1c(-c1ccccc1)cn2C1CC(O)C1` (stereo unspecified), the 50% inhibitory concentration (IC50) in assay [1] was 2820 nM; in assay [2], 20 nM; in assay [3], 4000 nM; in assay [4], 390 nM.
As for `Nc1ncnc2c1c(-c1ccccc1)cn2C1CCC(O)C1` (stereo unspecified), the IC50 is 790 nM in assay [1], 50 nM in assay [2], 200 nM in assay [3] and 40 nM in assay [4].
Take `COc1cccc(-c2cn(C3CCCC3)c3ncnc(N)c23)c1`: the IC50 amounted to 460 nM in assay [1], 2 nM in assay [2], 170 nM in assay [3] and 170 nM in assay [4].
Take `COc1cccc(-c2cn(C3CC(CNCCO)C3)c3ncnc(N)c23)c1` (stereo unspecified): the IC50 in assay [1] came to 490 nM; in assay [2] it was 20 nM; in assay [3], 300 nM; in assay [4], 420 nM.
Take `COc1ccc(CC(CO)n2cc(-c3cccc(OC)c3)c3c(N)ncnc32)cc1` (stereo unspecified): the IC50 in assay [1] was determined as 9700 nM; in assay [2] it was 1000 nM.
On to `COc1ccc(-c2cn(C3CCC3)c3ncnc(N)c23)cc1`, for which the IC50 in assay [2] amounted to 200 nM; in assay [3], 3000 nM.
As to `Nc1ncnc2c1c(-c1cccc(O)c1)cn2C1CCCC1`, the IC50 worked out at 80 nM in assay [1], 1 nM in assay [2] and 200 nM in assay [3].
For `COc1ccc(CC(CO)n2cc(-c3cccc(O)c3)c3c(N)ncnc32)cc1` (stereo unspecified), the IC50 in assay [1] worked out at 3400 nM; in assay [2], 42 nM; in assay [3] it was 400 nM; in assay [4] it was 340 nM.
On to `Nc1ncnc2c1c(-c1ccc(O)cc1)cn2C1CCCC1`, for which the half-maximal inhibitory concentration (IC50) is 250 nM in assay [1], 20 nM in assay [2], 300 nM in assay [3] and 110 nM in assay [4].
With `Nc1ncnc2c1c(-c1ccccc1)cn2C(CO)Cc1ccc(O)cc1` (stereo unspecified), the IC50 stood at 13200 nM in assay [1], 1900 nM in assay [2] and 2200 nM in assay [4].
For the molecule `COc1ccc(-c2cn(C3CCCC3)c3ncnc(N)c23)cc1`, the IC50 in assay [1] is 570 nM; in assay [2], 80 nM; in assay [3], 1200 nM; in assay [4], 260 nM.
On the same counts, the results for `COc1ccc(CC(CO)n2cc(-c3ccccc3)c3c(N)ncnc32)cc1` (stereo unspecified) are 14400 nM, greater than 1000 nM, greater than 5000 nM and greater than 10000 nM.
For the molecule `Nc1ncnc2c1c(-c1ccccc1)cn2C(CO)Cc1ccccc1` (stereo unspecified), the IC50 in assay [1] was 440 nM; in assay [2] it was 600 nM; in assay [4], 10500 nM.
As for `COc1cccc(-c2cn(C3CC(CO)C3)c3ncnc(N)c23)c1` (stereo unspecified), the IC50 in assay [2] came out at 30 nM; in assay [3], 2000 nM; in assay [4] it was 40 nM.
In the case of `Nc1ncnc2c1c(-c1ccccc1)cn2C1CCCC1`, the IC50 in assay [1] was determined as 500 nM; in assay [2], 140 nM; in assay [3], 1800 nM; in assay [4] it was 140 nM.
As to `COc1cccc(-c2cn(C3CC(C(=O)NCCO)C3)c3ncnc(N)c23)c1` (stereo unspecified), the IC50 is 330 nM in assay [1], 20 nM in assay [2], 4000 nM in assay [3] and 230 nM in assay [4].
In the case of `COc1cccc(-c2cn(C3CCC3)c3ncnc(N)c23)c1`, the IC50 in assay [1] turned out to be 450 nM; in assay [2], 40 nM; in assay [3], 600 nM; in assay [4], 50 nM.
On the same counts, the results for `Nc1ncnc2c1c(-c1cccc(O)c1)cn2C1CCC1` are 300 nM, 4 nM, 100 nM and 5 nM.
In turn, `Nc1ncnc2c1c(-c1ccccc1)cn2C(CO)CCc1ccccc1` (stereo unspecified) registered an IC50 in assay [2] of 4000 nM. This lies in the single-digit micromolar range.
In the case of `Nc1ncnc2c1c(-c1ccccc1)cn2[C@@H](CO)c1ccccc1`, the figures for the IC50 in assay [2] and in assay [3] were 480 nM and greater than 5000 nM, respectively.
`Nc1ncnc2c1c(-c1ccccc1)cn2[C@H](CO)c1ccccc1` had an IC50 in assay [5] of 4900 nM.
